Reference: ChEMBL document CHEMBL4680374, “Carbamate and N-Pyrimidine Mitigate Amide Hydrolysis: Structure-Based Drug Design of Tetrahydroquinoline IDO1 Inhibitors” (ACS Med Chem Lett, 2021)
In brackets after ≈: the same amount, converted by molar mass. Activity calls are given as the source filed them. The rule behind the calls is not given here.

Assays:
[1] = target: Voltage-gated inwardly rectifying potassium channel KCNH2 (Homo sapiens, UniProt Q12809); test: Displacement of [35S]-MK499 binding to human ERG expressed in HEK293 cells incubated for 2 hrs by liquid scintillation counting method; assay type: cell-based
[2] = target: Indoleamine 2,3-dioxygenase 1 (Homo sapiens) (UniProt P14902); conditions: Blood, time 1095.0 min
[3] = Solubility of compound in PBS buffer at pH 7 at 200 uM incubated for 24 hrs in shaker by UPLC-DAD analysis; assay type: physicochemical
[4] = Apparent permeability of compound; assay type: ADME; conditions: not told
[5] = Inhibition of Na ion channel (unknown origin); design: species or system Homo sapiens
[6] = Protein binding in human plasma assessed as unbound fraction; assay type: ADME, cell-free
[7] = Protein binding in rat plasma assessed as unbound fraction; assay type: ADME, cell-free
[8] = Solubility of compound in PBS buffer at pH 2 at 200 uM incubated for 24 hrs in shaker by UPLC-DAD analysis; assay type: physicochemical
Cytochrome P450 3A4 = Cytochrome P450 3A4 (Homo sapiens, UniProt P08684); test: Inhibition of CYP3A4 (unknown origin); assay type: ADME
[9] = Inhibition of Ca ion channel (unknown origin); design: species or system Homo sapiens
Cytochrome P450 2C9 = Cytochrome P450 2C9 (Homo sapiens, UniProt P11712); test: Inhibition of CYP2C9 (unknown origin); assay type: ADME
[10] = Lipophilicity, log D of compound in PBS buffer at pH 7 at 200 uM incubated for 24 hrs in shaker by UPLC/DAD analysis; assay type: physicochemical
[11] = Drug metabolism in human hepatocytes assessed as amide hydrolysis metabolite formation at 30 uM measured upto 90 mins by LC-MS analysis; assay type: ADME, cell-based, Hepatocyte
[12] = Drug metabolism in rat hepatocytes assessed as amide hydrolysis metabolite formation at 30 uM measured upto 90 mins by LC-MS analysis; assay type: ADME, cell-based, Hepatocyte
[13] = Half life in rat at 2 mg/kg, po or 1 mg/kg, iv; assay type: ADME, organism-based; conditions: in vivo
[14] = Unbound clearance in rat at 0.05 mg/kg, iv; assay type: ADME, organism-based; conditions: in vivo
[15] = Clearance in rat at 0.05 mg/kg, iv; assay type: ADME, organism-based; conditions: in vivo
[16] = Oral bioavailability in rat at 2 mg/kg; assay type: ADME, organism-based; conditions: in vivo
[17] = Unbound clearance in rat at 2 mg/kg, po or 1 mg/kg, iv; assay type: ADME, organism-based; conditions: in vivo
[18] = Plasma clearance in rat at 2 mg/kg, po or 1 mg/kg, iv; assay type: ADME, organism-based
[19] = Metabolic stability in rat hepatocytes at 30 uM measured upto 90 mins by LC-MS analysis; assay type: ADME, cell-based, Hepatocyte
[20] = Metabolic stability in human hepatocytes at 30 uM measured upto 90 mins by LC-MS analysis; assay type: ADME, cell-based, Hepatocyte
[21] = target: Tryptophan 2,3-dioxygenase (Homo sapiens) (UniProt P48775); test: Inhibition of TDO in human SW48 cells assessed as inhibition of N-formylkynurenine production; assay type: cell-based
[22] = Drug metabolism in rat hepatocytes assessed as oxidative metabolite formation at 30 uM measured upto 90 mins by LC-MS analysis; assay type: ADME, cell-based, Hepatocyte
[23] = Drug metabolism in human hepatocytes assessed as oxidative metabolite formation at 30 uM measured upto 90 mins by LC-MS analysis; assay type: ADME, cell-based, Hepatocyte

Sequence of Cytochrome P450 3A4 (P08684 whole entry): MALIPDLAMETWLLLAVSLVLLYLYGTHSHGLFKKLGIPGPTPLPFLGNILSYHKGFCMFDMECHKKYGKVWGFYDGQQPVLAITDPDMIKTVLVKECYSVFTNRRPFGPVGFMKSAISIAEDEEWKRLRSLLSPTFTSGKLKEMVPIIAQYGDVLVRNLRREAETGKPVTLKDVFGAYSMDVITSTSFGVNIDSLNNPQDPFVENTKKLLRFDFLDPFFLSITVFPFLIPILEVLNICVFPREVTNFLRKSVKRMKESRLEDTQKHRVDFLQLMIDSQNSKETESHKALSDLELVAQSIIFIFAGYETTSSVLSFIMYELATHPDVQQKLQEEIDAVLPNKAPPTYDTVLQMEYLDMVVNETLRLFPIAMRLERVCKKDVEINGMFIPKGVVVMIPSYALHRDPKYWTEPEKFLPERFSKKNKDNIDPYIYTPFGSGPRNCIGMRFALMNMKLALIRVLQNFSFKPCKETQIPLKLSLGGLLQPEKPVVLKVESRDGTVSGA
Sequence of Voltage-gated inwardly rectifying potassium channel KCNH2 (Q12809 whole entry): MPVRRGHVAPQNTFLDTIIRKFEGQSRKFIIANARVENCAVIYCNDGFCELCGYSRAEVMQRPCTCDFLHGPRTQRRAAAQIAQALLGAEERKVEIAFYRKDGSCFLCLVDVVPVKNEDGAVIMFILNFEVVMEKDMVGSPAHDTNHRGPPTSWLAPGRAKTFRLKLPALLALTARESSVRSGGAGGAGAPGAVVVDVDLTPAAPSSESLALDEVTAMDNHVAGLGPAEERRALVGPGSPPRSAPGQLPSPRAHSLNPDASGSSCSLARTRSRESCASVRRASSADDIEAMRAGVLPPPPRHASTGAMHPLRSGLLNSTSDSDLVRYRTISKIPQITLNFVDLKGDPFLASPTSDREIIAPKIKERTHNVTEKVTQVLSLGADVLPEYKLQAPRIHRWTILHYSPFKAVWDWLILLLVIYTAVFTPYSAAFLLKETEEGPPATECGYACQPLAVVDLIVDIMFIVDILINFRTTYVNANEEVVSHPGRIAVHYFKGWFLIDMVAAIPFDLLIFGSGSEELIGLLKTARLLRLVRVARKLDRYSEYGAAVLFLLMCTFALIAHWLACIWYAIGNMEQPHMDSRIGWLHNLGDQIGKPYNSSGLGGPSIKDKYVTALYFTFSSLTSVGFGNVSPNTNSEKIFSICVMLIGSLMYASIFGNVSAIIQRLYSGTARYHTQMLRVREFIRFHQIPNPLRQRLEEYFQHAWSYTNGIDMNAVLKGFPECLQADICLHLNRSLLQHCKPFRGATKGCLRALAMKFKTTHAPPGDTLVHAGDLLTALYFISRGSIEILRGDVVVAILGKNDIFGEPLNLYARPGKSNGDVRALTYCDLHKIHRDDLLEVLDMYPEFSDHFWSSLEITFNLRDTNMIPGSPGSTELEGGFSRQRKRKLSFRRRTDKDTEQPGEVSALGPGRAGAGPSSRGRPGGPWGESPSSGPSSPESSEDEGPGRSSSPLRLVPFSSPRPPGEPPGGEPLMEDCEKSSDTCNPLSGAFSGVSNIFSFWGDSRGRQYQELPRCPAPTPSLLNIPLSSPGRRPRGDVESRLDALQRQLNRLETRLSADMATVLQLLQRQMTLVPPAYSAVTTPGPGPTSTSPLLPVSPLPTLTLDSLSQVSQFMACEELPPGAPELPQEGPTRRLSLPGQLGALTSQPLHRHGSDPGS
Sequence of Cytochrome P450 2C9 (P11712 whole entry): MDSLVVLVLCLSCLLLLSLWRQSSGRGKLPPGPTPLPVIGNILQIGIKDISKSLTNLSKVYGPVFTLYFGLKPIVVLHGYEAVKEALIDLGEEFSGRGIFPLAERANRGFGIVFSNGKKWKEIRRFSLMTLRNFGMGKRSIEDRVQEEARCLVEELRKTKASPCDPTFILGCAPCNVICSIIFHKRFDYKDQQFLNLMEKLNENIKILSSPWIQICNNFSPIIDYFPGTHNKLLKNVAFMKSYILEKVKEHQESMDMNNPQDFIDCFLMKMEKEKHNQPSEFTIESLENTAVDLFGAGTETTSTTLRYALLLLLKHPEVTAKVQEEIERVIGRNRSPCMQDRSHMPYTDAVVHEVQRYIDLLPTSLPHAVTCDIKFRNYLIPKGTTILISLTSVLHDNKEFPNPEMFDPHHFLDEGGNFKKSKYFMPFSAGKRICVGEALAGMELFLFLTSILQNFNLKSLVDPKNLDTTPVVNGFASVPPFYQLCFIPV
Sequence of Indoleamine 2,3-dioxygenase 1 (Homo sapiens) (P14902 whole entry, looked up): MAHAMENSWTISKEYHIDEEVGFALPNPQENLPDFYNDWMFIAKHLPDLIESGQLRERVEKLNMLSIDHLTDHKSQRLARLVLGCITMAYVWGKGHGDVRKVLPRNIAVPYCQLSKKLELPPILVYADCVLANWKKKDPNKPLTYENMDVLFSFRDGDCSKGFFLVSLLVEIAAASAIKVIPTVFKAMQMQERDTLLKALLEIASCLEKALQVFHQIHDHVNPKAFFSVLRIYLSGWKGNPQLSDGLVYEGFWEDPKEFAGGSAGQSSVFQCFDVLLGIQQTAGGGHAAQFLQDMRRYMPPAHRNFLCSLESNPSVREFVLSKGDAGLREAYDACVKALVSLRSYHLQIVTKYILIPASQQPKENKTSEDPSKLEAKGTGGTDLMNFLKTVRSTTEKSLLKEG
Sequence of Tryptophan 2,3-dioxygenase (Homo sapiens) (P48775 whole entry, looked up): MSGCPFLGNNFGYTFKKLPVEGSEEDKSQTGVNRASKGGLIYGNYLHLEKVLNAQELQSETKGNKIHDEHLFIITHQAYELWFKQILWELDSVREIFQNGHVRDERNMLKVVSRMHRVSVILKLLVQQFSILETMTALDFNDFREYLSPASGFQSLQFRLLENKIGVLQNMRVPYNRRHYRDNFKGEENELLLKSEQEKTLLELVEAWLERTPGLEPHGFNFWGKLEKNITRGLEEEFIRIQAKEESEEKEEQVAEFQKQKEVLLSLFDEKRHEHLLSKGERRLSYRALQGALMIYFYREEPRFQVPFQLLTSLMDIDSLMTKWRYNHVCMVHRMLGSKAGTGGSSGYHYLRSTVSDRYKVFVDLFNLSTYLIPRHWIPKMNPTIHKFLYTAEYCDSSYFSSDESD

Structure (SMILES)	solubility at 24 h, 200 µM [3]	solubility at 24 h, 200 µM [8]	logD at 24 h, 200 µM [10]	IC50 [1]	also measured
C[C@@H](NC(=O)c1ccc(F)cc1)c1ccc2c(n1)CCCN2c1ccnc(C(F)(F)F)n1	166 µM (≈ 73.9 µg/mL)	183 µM (≈ 81.5 µg/mL)		25 µM	fIC50 [2]: 2.1 nM; Papp [4]: 33 ×10⁻⁶ cm/s; IC50 [5]: 7 µM; fraction unbound [6]: 0.05; fraction unbound [7]: 0.037; IC50 (Cytochrome P450 3A4): 43 µM; IC50 [9]: 6 µM; IC50 (Cytochrome P450 2C9): 18 µM
C[C@@H](NC(=O)c1ccc(F)cc1)c1ccc2c(n1)CCCN2c1ccnc(C#N)n1	152 µM (≈ 61.2 µg/mL)	163 µM (≈ 65.6 µg/mL)	2.7		
C[C@@H](NC(=O)c1ccc(F)cc1)c1ccc2c(n1)CCCN2c1ccccn1	151 µM (≈ 56.8 µg/mL)	197 µM (≈ 74.2 µg/mL)	2.7		
Cc1nccc(N2CCCc3nc([C@@H](C)NC(=O)c4ccc(F)cc4)ccc32)n1	166 µM (≈ 65 µg/mL)	168 µM (≈ 65.8 µg/mL)		18 µM	
C[C@@H](NC(=O)c1ccc(F)cc1)c1ccc2c(n1)CCCN2C(=O)OC1CC1	156 µM (≈ 59.8 µg/mL)	181 µM (≈ 69.4 µg/mL)	2.8	20 µM	bioavailability [16]: 40%; CL free [17]: 221 mL/min/kg; half-life [13]: 1.1 h; Papp [4]: 32 ×10⁻⁶ cm/s; IC50 [5]: 60 µM; fraction unbound [6]: 0.094; fraction unbound [7]: 0.11; clearance [18]: 14 mL/min/kg; IC50 (Cytochrome P450 3A4): 60 µM; IC50 [9]: 60 µM; IC50 (Cytochrome P450 2C9): 6.2 µM
Cc1cc(N2CCCc3nc([C@@H](C)NC(=O)c4ccc(F)cc4)ccc32)ccn1	165 µM (≈ 64.4 µg/mL)	177 µM (≈ 69.1 µg/mL)	2	0.73 µM	Stabilty [19]: Stable; Stabilty [20]: Stable
COC(=O)N1CCCc2nc([C@@H](C)NC(=O)c3ccc(F)cc3)ccc21	154 µM (≈ 55 µg/mL)	167 µM (≈ 59.7 µg/mL)	2.3		
C[C@@H](NC(=O)c1ccc(F)cc1)c1ccc2c(n1)CCCN2C(=O)OC1CCC1	134 µM (≈ 53.3 µg/mL)	184 µM (≈ 73.1 µg/mL)	3.2		
O=C(NCc1ccc2c(c1)CCCN2C(=O)c1cccc(Cl)c1)c1ccc(Cl)cc1				11 µM	
COCCOC(=O)N1CCCc2nc([C@@H](C)NC(=O)c3ccc(F)cc3)ccc21	165 µM (≈ 66.2 µg/mL)	196 µM (≈ 78.7 µg/mL)	2.3		
C[C@@H](NC(=O)c1ccc(F)cc1)c1ccc2c(n1)CCCN2C(=O)OCC(F)(F)F	132 µM (≈ 56.2 µg/mL)	200 µM (≈ 85.1 µg/mL)	3		
C[C@@H](NC(=O)c1ccc(F)cc1)c1ccc2c(n1)CCCN2c1ncccn1	5 µM (≈ 1.89 µg/mL)	139 µM (≈ 52.5 µg/mL)	2.4	20 µM	
C[C@@H](NC(=O)c1ccc(F)cc1)c1ccc2c(n1)CCCN2c1ccncn1	164 µM (≈ 61.9 µg/mL)	157 µM (≈ 59.3 µg/mL)	1.9		
C[C@@H](NC(=O)c1ccc(F)cc1)c1ccc2c(n1)CCCN2C(=O)C1(C(F)(F)F)CC1	162 µM (≈ 70.5 µg/mL)	187 µM (≈ 81.4 µg/mL)	2.9		Stabilty [19]: Stable; Stabilty [20]: Stable
C[C@@H](NC(=O)c1ccc(F)cc1)c1ccc2c(n1)CCCN2c1cnccn1	4 µM (≈ 1.51 µg/mL)	143 µM (≈ 54 µg/mL)	2.1		
C[C@@H](NC(=O)c1ccc(F)cc1)c1ccc2c(n1)CCCN2c1cccnc1	147 µM (≈ 55.3 µg/mL)	177 µM (≈ 66.6 µg/mL)	2.3		
C[C@@H](NC(=O)c1ccc(F)cc1)c1ccc2c(n1)CCCN2C(=O)OC1COC1	168 µM (≈ 67.1 µg/mL)	176 µM (≈ 70.3 µg/mL)	2		

Second part, led by results:

solubility at 24 h, 200 µM [3]	solubility at 24 h, 200 µM [8]	logD at 24 h, 200 µM [10]	Structure (SMILES)	IC50 [1]	also measured
82 µM (≈ 35.9 µg/mL)	148 µM (≈ 64.8 µg/mL)	3.1	C[C@@H](NC(=O)c1ccc(F)cc1)c1ccc2c(n1)CCCN2C(=O)c1cccc(Cl)c1		Drug metabolism [11]: Metabolite_Detected; Drug metabolism [12]: Metabolite_Detected; half-life [13]: 1.6 h; Papp [4]: 32 ×10⁻⁶ cm/s; IC50 [5]: 20 µM; CL free [14]: 1566 mL/min/kg; fraction unbound [6]: 0.029; fraction unbound [7]: 0.037; clearance [15]: 57 mL/min/kg; IC50 (Cytochrome P450 3A4): 20 µM; IC50 [9]: 20 µM
3 µM (≈ 1.37 µg/mL)	1 µM (≈ 0.455 µg/mL)	3.6	C[C@@H](NC(=O)c1ccc(Cl)cc1)c1ccc2c(c1)OCCN2C(=O)c1cccc(Cl)c1	6.9 µM	
137 µM (≈ 48.8 µg/mL)	140 µM (≈ 49.9 µg/mL)	2.8	CC(C)CC(=O)N1CCCc2cc(CNC(=O)c3ccsc3)ccc21	24 µM	half-life [13]: 0.2 h; inhibition [21]: inactive; Stabilty [19]: Unstable; clearance [18]: 93 mL/min/kg; Stabilty [20]: Unstable
		3.2	CCCNC(=O)C1(c2ccc(NC(=O)c3cccc(Cl)c3)cc2)CCC1		
13 µM (≈ 5 µg/mL)	13 µM (≈ 5 µg/mL)	3.3	CC(C)CC(=O)N1CCCc2cc(CNC(=O)c3ccc(Cl)cc3)ccc21	22 µM	
3 µM (≈ 1.36 µg/mL)	< 1 µM	3.7	C[C@H](NC(=O)c1ccc(Cl)cc1)c1ccc2c(c1)CCCN2C(=O)c1cccc(Cl)c1	1 µM	
168 µM (≈ 62.4 µg/mL)	183 µM (≈ 68 µg/mL)	2.7	CCOC(=O)N1CCCc2nc([C@@H](C)NC(=O)c3ccc(F)cc3)ccc21		
97 µM (≈ 37.4 µg/mL)	185 µM (≈ 71.4 µg/mL)	3	CC(C)CC(=O)N1CCCc2cc(CNC(=O)c3ccc(Cl)cc3)cnc21		
11 µM (≈ 5 µg/mL)	171 µM (≈ 77.7 µg/mL)	3.4	C[C@@H](NC(=O)c1ccc(Cl)cc1)c1ccc2c(n1)CCCN2C(=O)c1cccc(Cl)c1	8.7 µM	
3 µM (≈ 1.36 µg/mL)	< 1 µM	3.7	C[C@@H](NC(=O)c1ccc(Cl)cc1)c1ccc2c(c1)CCCN2C(=O)c1cccc(Cl)c1	1 µM	Drug metabolism [22]: Metabolite_Detected; Drug metabolism [23]: Metabolite_Detected
< 4 µM	< 4 µM	3.9	C[C@@H](NC(=O)c1ccc(Cl)cc1)c1ccc2c(c1)C(F)(F)CCN2C(=O)c1cccc(Cl)c1		
27 µM (≈ 12.3 µg/mL)	152 µM (≈ 69.1 µg/mL)	3.3	C[C@@H](NC(=O)c1ccc(Cl)cc1)c1cc2c(cn1)N(C(=O)c1cccc(Cl)c1)CCC2	16 µM	
